Laboratory results taken from patent US20230190680A1, “METHODS AND COMPOSITIONS FOR TREATING AN RNA VIRUS INDUCED DISEASE” (Golden Biotechnology Corporation, priority 2020, published 2023).
Where two headings read alike, the source gives them in different places.

Assays:
[1] = system: IL-6; assay: Local renal inflammation marker IL-6 (FIG. 8); format: in vivo
[2] = system: MCP-1; assay: Local renal inflammation marker MCP-1 (FIG. 8); format: in vivo
[3] = system: NF-kB; assay: Renal inflammation, NF-kB activation model (FIG. 7): NF-kB expression; format: in vivo
[4] = system: HepG2.2.15 cells; assay: MTT assay (cytotoxicity); format: cell-based, human
Method: (§1) Cell Culture. HepG2.2.15 cell line was cultured in MEM medium, supplemented with 10% fetal bovine serum, penicillin (100 IU/ml; Gibco, USA), and streptomycin (100 ug/ml; Gibco, USA) in 5% CO2 incubator at 37° C. This is a cell line derived from human hepatoblastoma cell line HepG2 and characterized by having stable HBV expression. Qs5 is HBV-producing rat hepatoma cell lines.
MTT assay. 1.25 ×10^5 cells/well were seeded onto 24-well plate. Cells were incubated with varying concentrations of G4 and 3TC (1, 5, 25, 50, 100 and 200 uM) for 72 hours. 1 mg/ml 3-(4, 5-dimethylthiazol-2-yl)-2, 5- diphenyltetrazolium- bromide (MTT) was added to each well and incubated for 2 hours at 37° C. to allow formation of the colored crystals. Medium was replaced with DMSO and plates were incubated for 15 minutes at room temperature with shaking to dissolve the crystals. The absorbance was measured by the microplate reader. The optical density was measured at 490 nm.

[5] = system: SARS-CoV-2; format: cell-based; conditions: Vero E6 cells, MOI = 0.1, 24 h, FIG. 10
[6] = system: TGFB1; format: cell-based; conditions: 20 µM, DMSO 2.59-fold
[7] = system: CXCL10; format: cell-based; conditions: DMSO 9.04 fold
[8] = system: Nrf-2; assay: Renal inflammation, NF-kB activation model (FIG. 7): nuclear Nrf-2 expression; format: in vivo
[9] = system: CD3; assay: Local renal inflammation marker CD3 (FIG. 8); format: in vivo
[10] = system: HBeAg; assay: ELISA of HBeAg in HepG2.2.15 supernatants; format: cell-based, HBV; conditions: 72 hours, FIG. 1A
Method: as §1
(§2) Lamivudine (3TC) and Adefovir dipivoxil (Adv) are marketed for HBV treatment as positive controls. Antroquinonol (G4) and Lamivudine (3TC) dissolved in dimethylsulfoxide (DMSO) only for stock solutions and diluted in culture medium. The final concentration of DMSO in cells is less 0.1%. Drugs treated with 2×10^4 cells in 96-well plate for 72 hours.
(§3) The levels of HBsAg and HBeAg in HepG2.2.15 supernatants were measured using their commercial enzyme-linked immunosorbent assay (ELISA) kits following the manufacturer’s instructions.
(§4) To examine the effect of Antroquinonol on HBV protein expression, including surface antigen (HBsAg) and e antigen (HBeAg), ELISA assay was used to quantify HBV replication. The study results have shown that Compound 1 (i.e., Antroquinonol) reduces HBeAg (see FIG. 1A) and HBsAg (see FIG. 1B) expression levels. Compound 1 in comparison with Lamivudine, has shown reduction in the expression levels of the two major HBV biomarkers, HBeAg and HBsAg by 50% and 40% respectively.

[11] = system: IL6; format: cell-based; conditions: 10 µM; DMSO 47.81-fold; FIG. 12B
[12] = system: IL18; format: cell-based; conditions: 20 µM, DMSO 1.36-fold
[13] = system: HCV RNA; assay: HCV RNA activity (FIG. 2B); format: cell-based
[14] = system: COL4A1; format: cell-based; conditions: 20 µM; DMSO 2.37-fold; FIG. 13B
[15] = system: HBsAg; assay: ELISA of HBsAg in HepG2.2.15 supernatants; format: cell-based, HBV; conditions: 72 hours, FIG. 1B
Method: as §1, §2, §3, §4

COC1=C(OC)C(O)C(C/C=C(\C)CC/C=C(\C)CCC=C(C)C)C(C)C1=O (stereo not drawn) [Compound 1, 4-hydroxy-2,3-dimethoxy-6-methyl-5-(3,7,11-trimethyldodeca-2,6,10-trienyl)cyclohex-2-enone]
suppression of IL-6 expression [1]: ~57%
suppression of MCP-1 expression [2]: around 50%
suppression in NF-kB expression [3]: 36%
cytotoxicity by MTT assay ([4]; over 25 uM): cytotoxicity effects
cytotoxicity by MTT assay ([4]; up to exposure to 5 uM): No apparent cytotoxicity
reduction of SARS-CoV-2 concentration ([5]; 10 µM): 91.20%
reduction of SARS-CoV-2 concentration ([5]; 20 µM): 99.93%
change in TGFB1 expression [6]: 0.99 fold
change in CXCL10 expression ([7]; 10 µM): 3.40 fold
change in CXCL10 expression ([7]; 20 µM): 1.01 fold
enhancement in nuclear Nrf-2 expression [8]: 2 times
suppression of CD3 expression [9]: ~66%
reduction in the expression level of HBeAg [10]: 50%
change in IL6 expression [11]: 11.88 fold
change in IL18 expression [12]: 0.89 fold
reduction in HCV RNA activity [13]: 95%
change in COL4A1 expression [14]: 0.65 fold
reduction in the expression level of HBsAg [15]: 40%
